Biological target: Bromodomain-containing protein 4 (Homo sapiens, UniProt O60885)
Experiment: Time-Resolved Fluorescence Resonance energy Transfer (TR-FRET) Assay: For this purpose, a time-resolved fluorescence resonance energy transfer (TR-FRET) assay was used, which measures the binding between N-terminally His6-tagged BRD4(1) (amino acids 44-168) and a synthetic acetylated histone H4 (Ac-H4) peptide with sequence GRGK(Ac)GGK(Ac)GLGK(Ac)GGAK(Ac)RHGSGSK-biotin. The recombinant BRD4 protein produced in-house according to Filippakopoulos et al., Cell, 2012, 149:214-231 was expressed in E. coli and purified by means of (Ni-NTA) affinity and (Sephadex G-75) size exclusion chromatography. The Ac-H4 peptide can be purchased, for example, from Biosyntan (Berlin, Germany).In the assay, typically 11 different concentrations of each substance (0.1 nM, 0.33 nM, 1.1 nM, 3.8 nM, 13 nM, 44 nM, 0.15 μM, 0.51 μM, 1.7 μM, 5.9 μM and 20 μM) were analysed as duplicates on the same microtitre plate. For this purpose, 100-fold concentrated solutions in DMSO were prepared by serial dilutions (1:3.4) of a 2 mM stock solution into a clear, 384-well microtitre plate (Greiner Bio-One, Frickenhausen, Germany). From this, 50 nl were transferred into a black test plate (Greiner Bio-One, Frickenhausen, Germany). […]

IC50: 220 nM
SMILES: Cc1nnc2n1-c1ccc(OC(F)(F)F)cc1C(c1ccc(Cl)cc1)=C[C@H]2CC(=O)N1CC2(COC2)C1

Reference: ChEMBL document CHEMBL5726262, “BET protein-inhibiting 5-aryltriazoleazepines” (2017)
